From patent US20250179059A1 (The Regents of the University of California, priority 2021, published 2025)
Read-outs that look alike come from different tables or passages of the source.

Columns and labels:
[1] = tested on: human SKM-1 acute myeloid leukemia cells; experiment: SKM-1 antiproliferation cell-based assay (ATPlite); conditions: Homo sapiens
Description: The cell-based assay indirectly measures cell density (and therefore proliferation and/or survival) by detecting total ATP concentration in a homogeneous format. Briefly, human SKM-1 acute myeloid leukemia cells (Leibniz Institute DSMZ #ACC 547) proliferating in log phase are collected by centrifugation, re-suspended in culture media (RPMI 1640/15% FBS/100 U/mL penicillin/100 μg/mL streptomycin) and diluted to 34722 cells/mL in media after counting. Then 180 μL cells are plated per well into a 96-well tissue-culture treated, clear bottom plate (Coming #3603). A 96-well compound plate (Corning #3357) is then generated by serial dilution of compounds into DMSO over nine concentrations and adding separate negative (DMSO) and positive control (reference compound) wells. Each compound concentration is tested in triplicate. First, 1 μL from each well of the compound plate is added to 99 μL culture media in an intermediate plate and mixed by pipetting. Then 20 μL of the diluted compounds in media are added to the assay plate containing the cells. The assay plate is maintained for 4 days in a standard cell culture incubator. At the end of the incubation period, 100 μL ATPlite Istep (PerkinElmer) is added to the assay plate wells, and the resulting luminescence is detected using an Infinite M1000 or a Spark multimode plate reader (Tecan). Data analysis is performed in Prism (GraphPad Software). For curve fitting, a non-linear regression, variable slope equation is used to calculate cellular IC50s.

[2] = target: T1, human BRD4 bromodomain II (Homo sapiens, UniProt O60885); experiment: Bromodomain binding assay (AlphaScreen), BRD4 BDII
T1 construct: human BRD4 bromodomain II [based on Genbank NM_058243, residues 349-460]; host or cells: E. coli
Method in brief: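 Read-out is AlphaScreen signal (ex 680 nm, em 520-620 nm) from streptavidin donor beads on a biotinylated acetylated histone H4 (aa 1-21) peptide and nickel acceptor beads on the His6-tagged bromodomain. IC50 values come from curve fits of percentage peptide binding against compound concentration.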

[3] = SKM-1, SKM-1 antiproliferation assay
[4] = BRD4 BDII AlphaScreen assay, read-out: BRD4 BD2 IC50
[5] = SKM-1, 96 h, SKM-1 antiproliferation assay, 4 days, Table C2
[6] = AlphaScreen assay, Table C2, read-out: BRD4 BDII IC50

Structure (SMILES) | GI50 [1, 3] [nM] | IC50 [2, 4] [nM] | GI50 [1, 5] [nM] | IC50 [2, 6] [nM]
CC(C)(C)N1CCN(c2cccc(-c3cc(F)cc(-c4ccc(-n5cc[nH]c5=O)c(Cl)c4)c3O)c2)CC1 [Example 928, 1-(3″-(4-(tert-butyl)piperazin-1-yl)-3-chloro-5′-fluoro-2′-hydroxy-[1,1′:3′,1″-terphenyl]-4-yl)-1H-imidazol-2(3H)-one] | 30 to 300 | 1 to 10 | – | –
CC(=O)Nc1ccc(-c2cccc(-c3cc(OC4CCC(N)CC4)nc(N4CCNCC4)c3)c2O)cc1F (stereo not drawn) [Example 375, N-(3′-(2-((4-aminocyclohexyl)oxy)-6-(piperazin-1-yl)pyridin-4-yl)-3-fluoro-2′-hydroxy-[1,1′-biphenyl]-4-yl)acetamide] | – | – | 300 to 3000 | 10 to 100
Cn1ccn(-c2ccc(-c3cc(F)cc(-c4cccc(-c5cccc(CN)c5)c4)c3O)cc2Cl)c1=O [Example 866] | 300 to 3000 | 10 to 100 | – | –
Cn1ccn(-c2ccc(-c3cc(F)cc(-c4cc(N5CCN(C(C)(C)C)CC5)ccn4)c3O)cc2Cl)c1=O [Example 953, 1-(3′-(4-(4-(tert-butyl)piperazin-1-yl)pyridin-2-yl)-3-chloro-5′-fluoro-2′-hydroxy-[1,1′-biphenyl]-4-yl)-3-methyl-1H-imidazol-2(3H)-one] | 300 to 3000 | > 100 | – | –
CC(=O)Nc1ccc(-c2cc(F)cc(-c3cccc(N4CCN(C(C)(C)C)CC4)c3)c2O)cc1Cl [Example 919, N-(3″-(4-(tert-butyl)piperazin-1-yl)-3-chloro-5′-fluoro-2′-hydroxy-[1,1′:3′,1″-terphenyl]-4-yl)acetamide] | 300 to 3000 | 1 to 10 | – | –
CC(=O)Nc1cc(-c2cc(F)cc(-c3ccc(-n4ccn(C)c4=O)c(Cl)c3)c2O)cc(N2CC[C@H](N(C)C)C2)n1 [Example 515, (S)-N-(4-(3′-chloro-5-fluoro-2-hydroxy-4′-(3-methyl-2-oxo-2,3-dihydro-1H-imidazol-1-yl)-[1,1′-biphenyl]-3-yl)-6-(3-(dimethylamino)pyrrolidin-1-yl)pyridin-2-yl)acetamide] | – | – | 0.3 to 30 | 1 to 10
Cn1ccn(-c2ccc(-c3cc(F)cc(-c4ccnc(N5CCN6C(=O)OCCC6C5)c4)c3O)cc2Cl)c1=O (stereo not drawn) [Example 675, 2-(4-(3′-chloro-5-fluoro-2-hydroxy-4′-(3-methyl-2-oxo-2,3-dihydro-1H-imidazol-1-yl)-[1,1′-biphenyl]-3-yl)pyridin-2-yl)hexahydropyrazino[1,2-c][1,3]oxazin-6(2H)-one] | – | – | 30 to 300 | 0.01 to 1
CN1CCN(c2ccc(-c3cccc(-c4cncc(N5CCC(N)CC5)c4)c3O)cc2Cl)C1=O [Example 305, 1-(3′-(5-(4-aminopiperidin-1-yl)pyridin-3-yl)-3-chloro-2′-hydroxy-[1,1′-biphenyl]-4-yl)-3-methylimidazolidin-2-one] | – | – | 30 to 300 | 1 to 10
COc1ncc(-c2cc(F)cc(-c3ccc(-n4c(C)cn(C)c4=O)c(Cl)c3)c2O)cc1N1CCN(C(C)(C)C)CC1 [Example 941, 3-(3′-(5-(4-(tert-butyl)piperazin-1-yl)-6-methoxypyridin-3-yl)-3-chloro-5′-fluoro-2′-hydroxy-[1,1′-biphenyl]-4-yl)-1,4-dimethyl-1H-imidazol-2(3H)-one] | 0.3 to 30 | 1 to 10 | – | –
CC(C)N1[C@H](C)CN(c2cccc(-c3cc(F)cc(-c4ccc(-n5ccn(C)c5=O)c(Cl)c4)c3O)c2)C[C@@H]1C [Example 906, 1-(3-chloro-5′-fluoro-2′-hydroxy-3″-((3R,5S)-4-isopropyl-3,5-dimethylpiperazin-1-yl)-[1,1′:3′,1″-terphenyl]-4-yl)-3-methyl-1H-imidazol-2(3H)-one] | 0.3 to 30 | 0.01 to 1 | – | –
Cc1ncc(-c2nc(F)cc(-c3ccc(-n4ccn(C)c4=O)c(Cl)c3)c2O)cc1N1CCN(C(C)(C)C)CC1 [Example 1043, 1-(4-(5′-(4-(tert-Butyl)piperazin-1-yl)-6-fluoro-3-hydroxy-6′-methyl-[2,3′-bipyridin]-4-yl)-2-chlorophenyl)-3-methyl-1H-imidazol-2(3H)-one] | 30 to 300 | – | – | –
